Columns and labels:
[1] = test system: tumor promotion; details: cited from earlier work
[2] = target: T1, PKCα isozyme (Homo sapiens, UniProt P17252); details: cited from earlier work
T1 construct: Fibroblasts were washed twice with ice-cold PBS, scraped in PBS, and collected by low-speed centrifugation; endogenous in cells; host or cells: cultured skin fibroblasts from Coriell Cell Repositories (AG07141, AG06241, AG06848)

[3] = target: T1, PKCα isozyme; test: PKC translocation to the cell membrane (immunoblot of cytosolic and membranous fractions of fibroblasts); type: cell-based
Description: (§1) Cultured skin fibroblasts were obtained from the Coriell Cell Repositories and grown using the general guidelines established for their culture with slight modifications (Cristofalo & Carptentier, 1988; Hirashima et al., 1996). The culture medium in which cells were grown was Dulbecco's modified Eagle's medium (GIBCO) supplemented with 10% calf serum (Biofluids, Inc.). Fibroblasts from control cell lines (AC), cases AG07141 and AG06241, and a familial AD (FAD) case (AG06848) were utilized.
Immunoblot experiments were conducted using well-established procedures (Dunbar, 1994). Cells were grown to confluency (˜90%) in 6 cm Petri dishes. […] Fibroblasts were washed twice with ice-cold PBS, scraped in PBS, and collected by low-speed centrifugation. The pellets were re-suspended in the following homogenization buffer: 20 mM Tris-HCl, pH 7.5, 2 mM EDTA, 2 mM EGTA, 5 mM DTT, 0.32 M sucrose, and protease inhibitor cocktail (Sigma). Hemogenates were obtained by sonication, and centrifuged at […] for 20 minutes, and the supernatants were used as the cytosolic fraction. The pellets were homogenized in the same buffer containing 1.0% Triton X-100, incubated in ice for 45 minutes, and centrifuged at ˜12,000 g for 20 minutes. The supernatant from this batch was used as the membranous fraction. After protein determination, 20 μg of protein were diluted in 2× electrophoresis sample buffer (Novex), boiled for 5 minutes, run on 10% acrylamide gel, and transferred electrophoretically to a PVDF membrane. The membrane was saturated with 5% milk blocker by incubating it at room temperature for an hour. The primary antibody for PKC isoform (Transduction Laboratories) was diluted (1:1000) in blocking solution and incubated with the membrane overnight at 4° C. After incubation with the secondary antibody, alkaline phosphatase anti-mouse IgG (Vector Laboratories), the membrane was developed using a chemoluminescent substrate (Vector Laboratories) per the manufacturer's instructions. The band intensities were quantified by densitometry using a BioRad GS-800 calibrated scanning densitometer and Multianalyst software (BioRad).

[4] = test system: sAPPα secretion; test: sAPPα secretion in cultured human skin fibroblasts (immunoblot, antibody 6E10); type: cell-based
Description: as §1

[5] = test system: rats; test: Morris Water Maze; type: in vivo, rat; details: intraventricular injection
Source text: (See, for example, Hollister, L. E., 1990, Pharmacopsychiat., 23, (Suppl II) 33-36). The available animal models of memory loss and impaired learning involve measuring the ability of animals to remember a discrete event. These tests include the Morris Water Maze and the passive avoidance procedure. In the Morris Water Maze, animals are allowed to swim in a tank divided into four quadrants, only one of which has a safety platform beneath the water. The platform is removed and the animals are tested for how long they search the correct quadrant verse the incorrect quadrants. In the passive avoidance procedure the animal remembers the distinctive environment in which a mild electric shock is delivered and avoids it on a second occasion. A variant of the passive avoidance procedure makes use of a rodent's preference for dark enclosed environments over light open ones. Further discussion can be found in Crawley, J. N., 1981, Pharmacol. Biochem. Behav., 15, 695-699; Costall, B. et al, 1987, Neuropharmacol., 26, 195-200; Costall, B. et al., 1989, Pharmacol. Biochem. Behav., 32, 777-785; Barnes, J. M. et al., 1989, Br. J. Pharmacol., 98 (Suppl) 693P; Barnes, J. M. et al. 1990, Pharmacol. Biochem. Behav., 35, 955-962.
In the present example, rats were injected intraventricularly with bryostatin-1 and trained for 4 days (following standard protocols). Retention was assessed on the 5th day. […] Acquisition of memory was measured as time spent in the relevant quadrant (5th day). […] (See, FIG. 4). Bryostatin is capable of being used at concentrations to improve cognition that are 300 to 300,000 times lower than the concentration used to treat tumors.

[6] = test system: patients; details: cited from earlier work
[7] = test system: diacylglycerol-protein kinase C; details: aorta of diabetic rats and cultured rat smooth muscle cells exposed to elevated glucose (Kunisaki et al. 1994); cited from earlier work
[8] = test system: patients suffering from moderately advanced Alzheimer's Disease; details: 2000 IU/day (Burke et al. 1999); cited from earlier work

| Compound | tumor promotion activity [1] | shape of the dose response curve as PKC activator [2] | activation of PKC (immunoblot, FIG. 7) ([3]; 0.1 nM bryostatin-1, 30 minutes after delivery) | response demonstrating the activation of PKC (FIG. 7) ([3]; AD cells, FIG. 7) | time of maximal PKC translocation to the cell membrane (PKC activation) ([3]; bryostatin) | PKC translocation after the maximum, compared with basal level ([3]; partial decline after 30 min, followed up to six hours) | sAPP secretion ([4]; 0.1 nM bryostatin-1, compared to vehicle alone and benzolactam) | sAPPα secretion, efficacy compared with controls and Benzolactam (FIG. 1) ([4]; FIG. 1) | sAPP secretion ([4]; bryostatin at 0.01 nM) | memory or retention: time spent in the relevant quadrant ([5]; 5th day, versus sham injection) | time to improved cognition compared to control rats ([5]; FIG. 4) | learning: escape latency from trial to trial ([5]; trained for 4 days, versus sham injection) | tolerability ([6]; 20 μg/m^2 once per week for 3 weeks (Weitman et al. 1999)) | maximum-tolerated dose ([6]; 1 hour i.v. infusion once every 2 weeks for 6 weeks (Prendville et al. 1993)) | maximum tolerated dose ([6]; once per week for 8 weeks (Jayson et al. 1995)) | diacylglycerol-protein kinase C activation [7] | cognitive abilities [8] | mortality and morbidity [8] |
| --- | --- | --- | --- | --- | --- | --- | --- | --- | --- | --- | --- | --- | --- | --- | --- | --- | --- | --- |
| CCC/C=C/C=C/C(=O)O[C@H]1/C(=C/C(=O)OC)C[C@H]2C[C@H]([C@@H](C)O)OC(=O)C[C@H](O)C[C@@H]3C[C@H](OC(C)=O)C(C)(C)[C@](O)(C[C@@H]4C/C(=C/C(=O)OC)C[C@H](/C=C/C(C)(C)[C@]1(O)O2)O4)O3 [bryostatin-1] | devoid of tumor promotion activity | biphasic | easily detectable | powerful response | 30 min | remains higher than basal translocation levels up to six hours | dramatic increase of sAPP secretion | greater efficacy at lower concentrations than controls and Benzolactam | still proved effective to increase sAPP secretion | significantly enhanced | ≤ 2 days | significantly lower | well tolerated and were not associated with myalgia or other side effects | 50 μg/m^2 | 25 μg/m^2 |  |  |  |
| vitamin E |  |  |  |  |  |  |  |  |  |  |  |  |  |  |  | normalize diacylglycerol-protein kinase C activation | did not enhance cognitive abilities | reduced mortality and morbidity |

— patent US9066923B2, “Methods for Alzheimer's disease treatment and cognitive enhancement” (Blanchette Rockefeller Neurosciences Institute, priority 2002, dated 2015)
